Where “and” joins values, the source holds several entries; their conditions need not be identical. Equal values may be shown once. Inconclusive results and toxic doses are left out. The calls were made as follows: active = survival T/C of 150% or more; inactive = T/C below 125% in these data.
System: P388 leukemia ip, CD2F1 mice, survival T/C
Test: NCI In Vivo Anticancer Drug Screen. Data for tumor model P388 Leukemia (intraperitoneal) in CD2F1 (CDF1) mice
Conditions: endpoint: median survival time, higher = longer survival
Outline: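 Mice carrying the transplanted tumor received test compound or vehicle. Survival was recorded in each group, and the value is the treated-group measurement divided by that of the vehicle-treated control group.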

[1] = dose: 60.0 mg/kg/injection, schedule: Q01DX005 (ip), vehicle: saline
[2] = dose: 120.0 mg/kg/injection, schedule: Q01DX005 (ip), vehicle: saline
[3] = dose: 50.0 mg/kg/injection, schedule: Q01DX009 (ip), vehicle: saline with Tween-80
[4] = dose: 60.0 mg/kg/injection, schedule: Q01DX005 (ip), vehicle: saline with Tween-80
[5] = dose: 120.0 mg/kg/injection, schedule: Q01DX005 (ip), vehicle: saline with Tween-80
[6] = dose: 240.0 mg/kg/injection, schedule: Q01DX005 (ip), vehicle: saline with Tween-80

Measured: T/C

C=C1N(C)c2ccccc2C1(C)C
inactive: dose: 4.0 mg/kg/injection, schedule: Q01DX009 (ip), vehicle: saline with Tween-80 113 % of control | dose: 5.9 mg/kg/injection, schedule: Q01DX009 (ip), vehicle: saline with Tween-80 123 % of control | dose: 9.0 mg/kg/injection, schedule: Q01DX009 (ip), vehicle: saline with Tween-80 110 % of control | dose: 13.0 mg/kg/injection, schedule: Q01DX009 (ip), vehicle: saline with Tween-80 108 % of control and 118 % of control | dose: 19.0 mg/kg/injection, schedule: Q01DX009 (ip), vehicle: saline with Tween-80 106 % of control | dose: 29.0 mg/kg/injection, schedule: Q01DX009 (ip), vehicle: saline with Tween-80 109 % of control | dose: 45.0 mg/kg/injection, schedule: Q01DX009 (ip), vehicle: saline with Tween-80 115 % of control

COCc1cccc2ccnc(C)c12
inactive: dose: 100.0 mg/kg/injection, schedule: Q01DX001 (ip), vehicle: saline with Tween-80 104 % of control | dose: 200.0 mg/kg/injection, schedule: Q01DX001 (ip), vehicle: saline with Tween-80 108 % of control | dose: 400.0 mg/kg/injection, schedule: Q01DX001 (ip), vehicle: saline with Tween-80 107 % of control

CN(C)C(=O)Nc1ccc(-c2cccnc2)cc1
inactive: [1] 109 % of control | [2] 107 % of control | dose: 240.0 mg/kg/injection, schedule: Q01DX005 (ip), vehicle: saline 93 % of control

O=C(O)c1nnn(-c2ccccc2)n1
inactive: dose: 50.0 mg/kg/injection, schedule: Q01DX005 (ip), vehicle: saline 101 % of control | dose: 100.0 mg/kg/injection, schedule: Q01DX005 (ip), vehicle: saline 101 % of control | dose: 200.0 mg/kg/injection, schedule: Q01DX005 (ip), vehicle: saline 106 % of control

O=C(N/N=C/c1cc(Br)ccc1[O-])c1ccccc1O.O=C(N/N=C/c1cc(Br)ccc1[O-])c1ccccc1O.[Co+2]
inactive: dose: 100.0 mg/kg/injection, schedule: Q04DX002 (ip), vehicle: Klucel (hydroxypropylcellulose) (HPC) 90 % of control | dose: 200.0 mg/kg/injection, schedule: Q04DX002 (ip), vehicle: Klucel (hydroxypropylcellulose) (HPC) 90 % of control

BrC/C(=N\N=C(\CBr)c1ccc(Br)cc1)c1ccc(Br)cc1
inactive: dose: 50.0 mg/kg/injection, schedule: Q01DX009 (ip), vehicle: Klucel (hydroxypropylcellulose) (HPC) 100 % of control | dose: 100.0 mg/kg/injection, schedule: Q01DX009 (ip), vehicle: Klucel (hydroxypropylcellulose) (HPC) 100 % of control | dose: 200.0 mg/kg/injection, schedule: Q01DX009 (ip), vehicle: Klucel (hydroxypropylcellulose) (HPC) 91 % of control

CN(C)c1ccc2c3c(c(=O)oc2c1)CCC3
inactive: dose: 3.12 mg/kg/injection, schedule: Q01DX009 (ip), vehicle: saline with Tween-80 102 % of control | dose: 6.25 mg/kg/injection, schedule: Q01DX009 (ip), vehicle: saline with Tween-80 112 % of control | dose: 12.5 mg/kg/injection, schedule: Q01DX009 (ip), vehicle: saline with Tween-80 114 % of control and 115 % of control | dose: 25.0 mg/kg/injection, schedule: Q01DX009 (ip), vehicle: saline with Tween-80 107 % of control | [3] 104 % of control and 111 % of control | dose: 200.0 mg/kg/injection, schedule: Q01DX009 (ip), vehicle: saline with Tween-80 94 % of control

CCC1(c2ccccc2)Nc2ccccc2C1=Nc1ccccc1 (stereo not drawn)
inactive: dose: 50.0 mg/kg/injection, schedule: Q04DX003 (ip), vehicle: saline with Tween-80 100 % of control | dose: 100.0 mg/kg/injection, schedule: Q04DX003 (ip), vehicle: saline with Tween-80 99 % of control | dose: 200.0 mg/kg/injection, schedule: Q04DX003 (ip), vehicle: saline with Tween-80 90 % of control

CCc1ccc(/C=C/C(=O)C(C)CN(C)C)cc1 (stereo not drawn)
inactive: [1] 105 % of control | [2] 118 % of control

O=P(OCC(F)(F)F)(c1ccccc1)c1ccccc1
inactive: dose: 50.0 mg/kg/injection, schedule: Q01DX005 (ip), vehicle: saline with Tween-80 108 % of control | dose: 100.0 mg/kg/injection, schedule: Q01DX005 (ip), vehicle: saline with Tween-80 104 % of control | dose: 200.0 mg/kg/injection, schedule: Q01DX005 (ip), vehicle: saline with Tween-80 112 % of control

CN(C)C1CS(=O)(=O)OC2=C1CCSc1ccccc12 (stereo not drawn)
inactive: [4] 102 % of control | [5] 99 % of control | [6] 100 % of control

CC1[N-]CCCN(CCN(C)C)CCC[N-]C(C)C2CCCC1[N-]2.[Ni+3].[O-][Cl+3]([O-])([O-])O (stereo not drawn)
inactive: dose: 100.0 mg/kg/injection, schedule: Q01DX001 (ip), vehicle: saline 106 % of control

C/C=C/CC1(CC)C(=O)NC(=S)NC1=O
inactive: [3] 100 % of control

COc1cc(C2C3=C(CCC3)Oc3cc4c(cc32)OCO4)cc(OC)c1OC (stereo not drawn)
inactive: [4] 91 % of control | [5] 86 % of control | [6] 86 % of control

— PubChem BioAssay AID330 (DTP/NCI, 2004)
